The source of these data is publication PMC8467962, “Design and Synthesis of Water-Soluble and Potent MMP-13 Inhibitors with Activity in Human Osteosarcoma Cells” (International Journal of Molecular Sciences, 2021).

≈ marks a conversion by molar mass, not a printed value.

Data set [1] concerns the target T1, MMP-2 (Homo sapiens, UniProt P08253).
T1 construct: the catalytic domains of the corresponding MMP were incubated in triplicate; purchased Enzo Life Science International, Inc
As to the kind of experiment: MMP inhibition assay (MMP Inhibitor Profiling Kit, thiopeptide substrate), MMP-2. Format: biochemical. To be noted: catalytic domain, 37 °C, pH 7.5. The procedure:
MMP activity measurements were performed using an MMP Inhibitor Profiling Kit purchased from Enzo Life Science International, Inc. (Farmingdale, NY, USA), and following the manufacturer’s protocol with slight modifications. Proteolytic activity was measured using a thiopeptide substrate (Ac-PLG-[2-mercapto-4-methylpentanoyl]-LG-OC2H5) where the MMP cleavage site peptide bond has been replaced by a thioester bond. Hydrolysis of this bond by MMPs produces a sulfhydryl group that reacts with DTNB to form 2-nitro-5-thiobenzoic acid, which was detected by its absorbance at 414 nm (microplate photometer 90 Thermo Scientific Multiscan FC).
Enzyme reactions were carried out at 37 °C in a 100 μL final volume of solutions, where the catalytic domains of the corresponding MMP were incubated in triplicate with at least seven concentrations of inhibitors. The assay buffer contained the following components: 50 mM HEPES, 10 mM CaCl2 95, 0.05% Brij-35, and 1 mM DTNB at pH 7.5. After addition of the substrate, the increase of absorbance was recorded in 1 min time intervals for 30 min. Data were plotted as OD versus time for each sample to obtain the reaction velocity (V) in OD per min. The percentage of residual activity for each compound was calculated using the following formula: % of remaining activity = (V in the presence of inhibitor/Vcontrol) × 100. An inhibitor, NNGH, was included as a prototypic control inhibitor. IC50 calculations in MMP-13 and MMP-2 for active compounds are shown in Supplementary Materials (Figure S9)
The concentration of the compound that provided 50% inhibition of enzymatic activity (IC50) was determined by using semi-logarithmic dose–response plots (Graph Pad Prism 5.0 for Windows, Graph Pad Software Inc., San Diego, CA, USA, 2007).

The nature of data set [2]: Thermodynamic solubility (shake flask method). To be noted: phosphate buffer, aqueous buffer, thermodynamic from solid; PBS pH 7.4, shake flask, room temperature; read-out: Experimental Water Solubility LogS (converted). Format: physicochemical. As for the experimental part: The samples were sonicated for 10 min and shaken overnight at 800 rpm (FB15013 TopMix, Fischer Scientific, Waltham, MA, USA) at room temperature. A first phase separation of supernatant and undissolved solid was performed by centrifugation at 5000 rpm for 20 min (Biofuge primo R). The supernatant was then transferred into Eppendorf tubes for a second centrifugation. An adequate dilution was made using the particle-free supernatant and the concentration quantified by LC-HRMS using a 4-point calibration curve (Agilent 1260 Infinity II).
PART A. Calibration curves of compounds for solubility
9e, 10a-e), 4-points calibration curves were made for each compound. Calibrations curves were obtained using four different concentrations of the corresponding compound (0.1 mg/mL, 0.01 mg/mL, 0.001 mg/mL and 0.0001 mg/mL). All samples were prepared in DMSO and measured in a LC-HRMS (Agilent 1260 Infinity II).
Figure S1. Calibration curves of all active compounds (solubility studies) (1, 2, 9a, 9e, 10a-e) […]

The target of data set [3] is T2, MMP-13 (Homo sapiens, UniProt P45452).
T2 construct: the catalytic domains of the corresponding MMP were incubated in triplicate; purchased Enzo Life Science International, Inc
The data set can be described thus: MMP inhibition assay (MMP Inhibitor Profiling Kit, thiopeptide substrate), MMP-13. Format: biochemical. The following applies: catalytic domain, 37 °C, pH 7.5. As for the experimental part:
MMP activity measurements were performed using an MMP Inhibitor Profiling Kit purchased from Enzo Life Science International, Inc. (Farmingdale, NY, USA), and following the manufacturer’s protocol with slight modifications. […] Hydrolysis of this bond by MMPs produces a sulfhydryl group that reacts with DTNB to form 2-nitro-5-thiobenzoic acid, which was detected by its absorbance at 414 nm (microplate photometer 90 Thermo Scientific Multiscan FC).
The assay buffer contained the following components: 50 mM HEPES, 10 mM CaCl2 95, 0.05% Brij-35, and 1 mM DTNB at pH 7.5. After addition of the substrate, the increase of absorbance was recorded in 1 min time intervals for 30 min. Data were plotted as OD versus time for each sample to obtain the reaction velocity (V) in OD per min. The percentage of residual activity for each compound was calculated using the following formula: % of remaining activity = (V in the presence of inhibitor/Vcontrol) × 100. An inhibitor, NNGH, was included as a prototypic control inhibitor.

T1 sequence (P08253 110-446 limits assumed): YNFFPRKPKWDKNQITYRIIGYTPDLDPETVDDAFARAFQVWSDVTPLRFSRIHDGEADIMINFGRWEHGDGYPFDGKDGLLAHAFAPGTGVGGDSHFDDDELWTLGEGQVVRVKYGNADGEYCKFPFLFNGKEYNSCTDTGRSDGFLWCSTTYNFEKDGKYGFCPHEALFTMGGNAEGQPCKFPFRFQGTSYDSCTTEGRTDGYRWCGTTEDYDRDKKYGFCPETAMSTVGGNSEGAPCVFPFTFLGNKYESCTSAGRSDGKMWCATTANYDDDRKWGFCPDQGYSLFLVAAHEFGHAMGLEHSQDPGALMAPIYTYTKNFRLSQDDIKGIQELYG

Broadly, the IC50 is the concentration needed to halve the response being measured. A word on the solubility: it is the concentration that dissolves in the medium under given conditions. For `O=C(NO)C1(S(=O)(=O)c2ccc(-n3cc(CCn4nc5ccccc5n4)nn3)cc2)CCOCC1` [Compound 9e, 4-((4-(4-(2-(2H-benzo[d][1–3]triazol-2-yl)ethyl)-1H-1,2,3-triazol-1-yl)phenyl)sulfonyl)-N-hydroxytetrahydro-2H-pyran-4-carboxamide], half-maximal inhibition in data set [1] (IC50) required 10.3 ± 2.8 nM. Besides, the solubility in data set [2] is 33.9 µM (≈ 16.9 µg/mL).
Usually melting point stands for the temperature of the solid-liquid transition. For `O=C(NO)[C@@H](Cc1ccccc1)NS(=O)(=O)c1ccc(-n2cc(CCN3C(=O)c4cc(Br)c(Br)cc4C3=O)nn2)cc1` [Compound 10b, (R)-2-((4-(4-(2-(5,6-dibromo-1,3-dioxoisoindolin-2-yl)ethyl)-1H-1,2,3-triazol-1-yl)phenyl)sulfonamido)-N-hydroxy-3-phenylpropanamide], the melting point was in the range of 187 to 189 °C. The compound further gave an IC50 in data set [3] of 46 ± 21 nM. The compound also had an IC50 in data set [1] of 15 ± 5 nM. In addition, the solubility in data set [2] was 3.63 µM (≈ 2.61 µg/mL).
`Cc1ccc2c(c1)C(=O)N(CCc1cn(-c3ccc(S(=O)(=O)N[C@H](Cc4ccccc4)C(=O)NO)cc3)nn1)C2=O` [Compound 10e, (R)-N-hydroxy-2-((4-(4-(2-(5-methyl-1,3-dioxoisoindolin-2-yl)ethyl)-1H-1,2,3-triazol-1-yl)phenyl)sulfonamido)-3-phenylpropanamide]: the melting point was in the range of 143 to 145 °C. This compound displayed a 50% inhibitory concentration (IC50) in data set [1] of 2.9 ± 1.1 nM. For the same compound, the solubility in data set [2] is 8.32 µM (≈ 4.78 µg/mL).
In the case of `O=C(O)[C@H](Cc1ccccc1)NS(=O)(=O)c1ccc(-n2cc(CCn3nc4ccccc4n3)nn2)cc1` [Compound 9c, (S)-2-(4-(4-(2-(2H-benzo[d][1–3]triazol-2-yl)ethyl)-1H-1,2,3-triazol-1-yl)phenylsulfonamido)-3-phenylpropanoic acid], the melting point lay in the range of 227 to 228 °C. Moreover, the concentration for half-maximal inhibition (IC50) in data set [3] was above 100 nM. For the same compound, the IC50 in data set [1] is above 100 nM.
With `O=C(NO)[C@@H](Cc1ccccc1)NS(=O)(=O)c1ccc(-n2cc(CCN3C(=O)c4ccccc4C3=O)nn2)cc1` [Compound 10a, (R)-2-((4-(4-(2-(1,3-dioxoisoindolin-2-yl)ethyl)-1H-1,2,3-triazol-1-yl)phenyl)sulfonamido)-N-hydroxy-3-phenylpropanamide], the melting point is 177 °C (dec.). Besides, the midpoint of inhibition in data set [1], the IC50, lay at 3.1 ± 0.9 nM. Further, the solubility in data set [2] is 2.69 µM (≈ 1.51 µg/mL).
As for `O=C(O)[C@@H](Cc1ccccc1)NS(=O)(=O)c1ccc(-n2cc(CCn3nc4c(Br)c(Br)c(Br)c(Br)c4n3)nn2)cc1` [Compound 9d, (R)-2-(4-(4-(2-(perbromo-2H-benzo[d][1–3]triazol-2-yl)ethyl)-1H-1,2,3-triazol-1-yl)phenylsulfonamido)-3-phenylpropanoic acid], the melting point was in the range of 127 to 130 °C. In data set [3], this compound gave a half-maximal inhibitory concentration (IC50) above 100 nM. Moreover, the IC50 in data set [1] is above 100 nM.
In the case of `O=C(O)[C@@H](Cc1ccccc1)NS(=O)(=O)c1ccc(-n2cc(CCn3nc4ccccc4n3)nn2)cc1` [Compound 9b, (R)-2-(4-(4-(2-(2H-benzo[d][1–3]triazol-2-yl)ethyl)-1H-1,2,3-triazol-1-yl)phenylsulfonamido)-3-phenylpropanoic acid], the melting point is 246 °C (dec.). In data set [3], this compound came in with a half-maximal inhibitory concentration (IC50) above 100 nM. The compound further came in with an IC50 in data set [1] above 100 nM.
With `O=C(NO)[C@@H](Cc1ccccc1)NS(=O)(=O)c1ccc(-n2cc(CCN3C(=O)c4ccc(Br)cc4C3=O)nn2)cc1` [Compound 10d, (R)-2-((4-(4-(2-(5-bromo-1,3-dioxoisoindolin-2-yl)ethyl)-1H-1,2,3-triazol-1-yl)phenyl)sulfonamido)-N-hydroxy-3-phenylpropanamide], the melting point was 104 °C (dec.). Moreover, the IC50 in data set [1] was found to be 14 ± 7 nM. For the same compound, the solubility in data set [2] is 2.29 µM (≈ 1.46 µg/mL).
